Common to all, as to assay: two-electrode voltage clamp, Xenopus oocytes
What all share (type): cell-based
A general note: Two-electrode voltage clamp is typically applied to oocytes expressing channels or transporters.

One test has as its target T1, HassOR6/Orco (Helicoverpa assulta, UniProt R4JLZ7).
T1 construct: gene OR6; full ORF in pT7Ts, cRNA co-expressed with Orco in Xenopus oocytes; with Odorant receptor coreceptor
T1 sequence (R4JLZ7 1-425): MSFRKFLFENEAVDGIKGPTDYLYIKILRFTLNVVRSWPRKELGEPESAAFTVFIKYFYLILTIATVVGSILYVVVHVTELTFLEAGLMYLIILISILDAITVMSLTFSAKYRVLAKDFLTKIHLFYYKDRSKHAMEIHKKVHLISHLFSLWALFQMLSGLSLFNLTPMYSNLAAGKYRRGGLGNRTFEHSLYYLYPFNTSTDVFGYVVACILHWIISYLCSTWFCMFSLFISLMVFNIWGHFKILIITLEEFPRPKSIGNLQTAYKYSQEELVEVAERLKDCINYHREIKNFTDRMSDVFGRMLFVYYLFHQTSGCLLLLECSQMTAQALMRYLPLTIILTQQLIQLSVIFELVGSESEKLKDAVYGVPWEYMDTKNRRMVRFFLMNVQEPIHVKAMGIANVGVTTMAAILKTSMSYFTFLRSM
T1 sequence (A7UGE1 1-473 partner): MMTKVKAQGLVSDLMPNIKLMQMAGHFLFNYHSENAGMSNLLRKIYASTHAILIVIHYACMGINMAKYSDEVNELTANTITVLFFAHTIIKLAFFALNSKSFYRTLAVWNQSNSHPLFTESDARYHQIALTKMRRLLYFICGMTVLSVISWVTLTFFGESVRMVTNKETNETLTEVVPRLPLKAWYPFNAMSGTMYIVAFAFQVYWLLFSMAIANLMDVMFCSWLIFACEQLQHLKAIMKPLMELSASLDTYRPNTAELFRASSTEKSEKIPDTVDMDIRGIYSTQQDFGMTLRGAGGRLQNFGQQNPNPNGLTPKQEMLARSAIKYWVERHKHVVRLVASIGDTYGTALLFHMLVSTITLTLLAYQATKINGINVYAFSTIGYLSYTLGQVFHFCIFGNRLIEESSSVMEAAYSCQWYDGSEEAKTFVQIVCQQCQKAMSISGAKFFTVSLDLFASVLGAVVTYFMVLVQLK
The note with it: agonist, main ligand; with Orco.

Another test has as its target T2, HassOR16/Orco (Helicoverpa assulta, UniProt C6K7C1).
T2 construct: full ORF in pT7Ts, cRNA co-expressed with Orco in Xenopus oocytes; with Odorant receptor coreceptor
T2 sequence (C6K7C1 1-422): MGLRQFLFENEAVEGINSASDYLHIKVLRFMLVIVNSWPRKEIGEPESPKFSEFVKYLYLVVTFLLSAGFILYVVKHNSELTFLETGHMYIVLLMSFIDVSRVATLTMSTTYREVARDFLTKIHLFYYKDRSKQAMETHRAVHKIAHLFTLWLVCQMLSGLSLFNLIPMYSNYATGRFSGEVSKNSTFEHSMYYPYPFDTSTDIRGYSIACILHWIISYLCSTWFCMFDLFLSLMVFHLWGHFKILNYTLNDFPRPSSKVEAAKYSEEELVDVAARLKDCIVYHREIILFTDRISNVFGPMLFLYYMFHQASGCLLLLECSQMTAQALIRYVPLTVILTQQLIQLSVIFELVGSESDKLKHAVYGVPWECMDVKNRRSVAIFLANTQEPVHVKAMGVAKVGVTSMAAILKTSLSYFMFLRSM
T2 sequence (A7UGE1 1-473 partner): T1 sequence (A7UGE1 1-473 partner)
The note with it: agonist; with Orco.

Another test deals with T3, HarmOR14b/HarmOrco (Helicoverpa armigera, UniProt R4JUU3).
T3 construct: gene OR14b; full ORF in pT7Ts, cRNA co-expressed with HarmOrco in Xenopus oocytes; alignment of OR14b orthologues over 440 residues; with Odorant receptor coreceptor
T3 sequence (R4JUU3 1-440): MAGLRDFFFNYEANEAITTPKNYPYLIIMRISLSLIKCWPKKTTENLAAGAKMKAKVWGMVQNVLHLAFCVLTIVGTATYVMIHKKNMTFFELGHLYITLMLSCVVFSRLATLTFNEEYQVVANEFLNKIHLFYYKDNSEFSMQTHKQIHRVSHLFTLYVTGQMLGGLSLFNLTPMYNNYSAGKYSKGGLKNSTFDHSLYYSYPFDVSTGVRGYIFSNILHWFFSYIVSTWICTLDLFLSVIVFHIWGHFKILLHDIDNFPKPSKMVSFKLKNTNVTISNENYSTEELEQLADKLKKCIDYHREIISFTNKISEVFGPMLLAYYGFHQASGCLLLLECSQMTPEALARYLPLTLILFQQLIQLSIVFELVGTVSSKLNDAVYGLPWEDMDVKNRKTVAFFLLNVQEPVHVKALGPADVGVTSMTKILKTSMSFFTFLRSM
The note with it: agonist; 10^-4 mol/L; with HarmOrco.

The next test addresses T4, HassOR13/Orco (Helicoverpa assulta, UniProt A0A0B4ZYC6).
T4 construct: gene OR13; full ORF in pT7Ts, cRNA co-expressed with Orco in Xenopus oocytes; with Odorant receptor coreceptor
T4 sequence (A0A0B4ZYC6 1-425): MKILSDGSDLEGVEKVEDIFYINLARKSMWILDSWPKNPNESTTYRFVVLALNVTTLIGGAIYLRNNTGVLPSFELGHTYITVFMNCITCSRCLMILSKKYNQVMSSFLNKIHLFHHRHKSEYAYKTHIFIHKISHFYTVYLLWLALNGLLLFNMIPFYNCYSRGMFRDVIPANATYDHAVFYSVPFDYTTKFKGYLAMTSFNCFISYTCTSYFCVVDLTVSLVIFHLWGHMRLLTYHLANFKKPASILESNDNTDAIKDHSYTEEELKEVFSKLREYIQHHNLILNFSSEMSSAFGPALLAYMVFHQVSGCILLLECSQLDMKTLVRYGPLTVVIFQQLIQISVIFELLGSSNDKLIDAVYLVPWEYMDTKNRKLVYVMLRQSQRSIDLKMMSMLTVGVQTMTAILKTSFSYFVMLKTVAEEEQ
T4 sequence (A7UGE1 1-473 partner): T1 sequence (A7UGE1 1-473 partner)
The note with it: agonist; with Orco.

For the compound `CCCCCC/C=C\CCCCCCCCO` [Z9-16:OH], at HassOR6/Orco, the current response result is reported as “HassOR6/Orco responded mainly to Z9-16:OH”.
`CCCC/C=C\CCCCCCCC=O` [Z9-14:Ald]: at HassOR16/Orco, the current response entry is “HassOR13/Orco and HassOR16/Orco were narrowly tuned to Z11-16:Ald and Z9-14:Ald respectively”. Further, the inward current response result at HarmOR14b/HarmOrco is recorded as “this receptor, when expressed in Xenopus oocytes, responds specifically to Z9-14:Ald”.
For `CCCC/C=C\CCCCCCCCCC=O` [Z11-16:Ald, (Z)-11-hexadecenal], the current response entry at HassOR13/Orco was “HassOR13/Orco and HassOR16/Orco were narrowly tuned to Z11-16:Ald and Z9-14:Ald respectively”.
